Reference: patent US20140357662A1, “THIENO (2,3 - C) PYRAZOLES FOR USE AS POTASSIUM CHANNEL INHIBITORS” (XENTION LIMITED, priority 2011, published 2014)

target: T1, rat Kir3.1/3.4 (Rattus norvegicus, UniProt P48548+P63251); experiment: Kir3.1/3.4 Electrophysiology Method (manual whole-cell patch clamp); type: cell-based; conditions: Human Embryonic Kidney 293 stably transfected with rat Kir3.1/3.4; inhibition of leak-subtracted current at -140 mV
T1 construct: expressed in transfected cells; host or cells: HEK293 (Human Embryonic Kidney 293), stably transfected
T1 sequence (P63251 1-501): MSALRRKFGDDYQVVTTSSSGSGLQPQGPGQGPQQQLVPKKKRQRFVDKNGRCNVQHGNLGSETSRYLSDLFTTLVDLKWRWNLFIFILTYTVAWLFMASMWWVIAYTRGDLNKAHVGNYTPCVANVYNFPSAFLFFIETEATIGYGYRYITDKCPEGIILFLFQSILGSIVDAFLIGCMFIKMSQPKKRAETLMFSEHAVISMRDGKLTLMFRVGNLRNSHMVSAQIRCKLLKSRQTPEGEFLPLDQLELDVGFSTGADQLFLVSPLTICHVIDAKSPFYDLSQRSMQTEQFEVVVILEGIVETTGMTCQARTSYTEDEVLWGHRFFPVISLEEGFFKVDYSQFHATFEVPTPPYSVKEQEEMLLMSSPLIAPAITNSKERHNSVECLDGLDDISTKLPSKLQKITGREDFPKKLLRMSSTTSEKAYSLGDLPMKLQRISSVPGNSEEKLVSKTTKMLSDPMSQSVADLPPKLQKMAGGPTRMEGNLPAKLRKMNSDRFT
T1 sequence (P48548 1-419): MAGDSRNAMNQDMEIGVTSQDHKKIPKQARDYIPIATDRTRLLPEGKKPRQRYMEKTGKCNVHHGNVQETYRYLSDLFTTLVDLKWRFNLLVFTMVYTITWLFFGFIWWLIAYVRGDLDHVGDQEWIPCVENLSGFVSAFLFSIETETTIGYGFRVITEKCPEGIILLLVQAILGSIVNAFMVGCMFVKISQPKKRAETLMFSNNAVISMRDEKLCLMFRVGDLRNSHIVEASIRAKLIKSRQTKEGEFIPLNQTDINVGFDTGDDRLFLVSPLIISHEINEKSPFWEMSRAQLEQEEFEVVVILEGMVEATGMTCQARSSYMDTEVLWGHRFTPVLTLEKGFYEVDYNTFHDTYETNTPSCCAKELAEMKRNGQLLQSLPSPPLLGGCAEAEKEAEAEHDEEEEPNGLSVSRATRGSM
Experimental: Compound activity against the recombinant G-protein activated inward rectifier current encoded by the heterotetramer Kir3.1/3.4 was assessed using manual whole-cell patch technique. The heterotetramer forms the pore-forming channel that conducts the acetylcholine/adenosine-activated potassium current in the heart.
For whole-cell patch-clamp studies, cells (Human Embryonic Kidney 293 stably transfected with rat Kir3.1/3.4) were seeded onto glass coverslips before recordings were made. Cells were seeded in sterile 30 mm Petri dishes at a density to enable isolated cells to be selected for patch clamp experiments. The dishes were stored in a humidified, gassed (5% CO2) incubator at 37° C. until use.
Whole-cell patch-clamp recordings of membrane currents were made following gigaohm seal formation between the patch electrode and the cell using HEKA EPC-9/10 amplifiers controlled by Pulse Software (Ver8.5x/8.6x/8.7x, HEKA, Germany). Coverslips seeded with cells were placed in a recording chamber mounted on the stage of an inverted microscope. During the experiment, the cell of interest was continuously superfused with bather solution delivered via a cannula placed in close proximity to the cell to enable control of the extracellular solution environment. Only those cells with a current <−500 pA (current at −140 mV) were used for experiments. During experiments, series resistance was compensated by a minimum of 70%.
Electrophysiology voltage-step protocols and analysis of data were performed as follows. Data was sampled at 5 kHz, and filtered with a −3 dB bandwidth of 2.5 kHz. Cells were held at a voltage of −60 mV. Currents were evoked by a depolarising voltage step to +60 mV (100 ms) before a ramp-repolarisation (0.4 V·s^−1) to −140 mV (100 ms) before returning to −60 mV. The command waveform was repeatedly applied every 10 s throughout the experiment. Mean currents during 1-99% of the time at −140 mV were analysed using Pulsefit software (v8.x, HEKA, Germany). The voltage protocol was repeatedly applied to achieve a stable current baseline in bather before the test substance was superfused via the cannula in close proximity to the cell under investigation. The test substance was allowed to equilibrate during which time voltage protocol was repeatedly applied and recorded. On reaching steady-state inhibition, the cell was superfused with an identical bather solution containing zero external potassium chloride (replaced by equimolar NaCl). The identical current measurement was made in the absence of potassium to assess the passive leak at −140 mV. The leak current was subtracted from the control and steady-state drug current values. The percentage inhibition of the leak-subtracted current in the presence of test substance was calculated relative to the control leak-subtracted pre-drug value. Internal patch-pipette solution contained in mM: 110 KCl, 20 NaCl, 0.9 GTPγS, 5 Mg-ATP, 5 EGTA, 10 HEPES, pH7.2 corrected with KOH. The external superfusate composition in mM was: 150 (or 160) NaCl, 10 (or 0) KCl, 3 CaCl2, 1 MgCl, 10 HEPES, pH 7.4 corrected with NaOH.

Row | IC50 [nM] | Compound
1 | < 500 | N#Cc1sc2[nH]nc(N3CCC(COCCN4CCCC4)CC3)c2c1-c1ccccc1 [Compound 3, 4-phenyl-3-[4-(2-pyrrolidin-1-ylethoxymethyl)-1-piperidyl]-1H-thieno[2,3-c]pyrazole-5-carbonitrile]
2 | < 500 | Fc1ccc(-c2csc3[nH]nc(N4CC5CC4CC5OCCN4CCCC4)c23)cc1 (stereo not drawn) [Compound 5, 4-(4-fluorophenyl)-3-[5-(2-pyrrolidin-1-ylethoxy)-2-azabicyclo[2.2.1]heptan-2-yl]-1H-thieno[2,3-c]pyrazole]
3 | < 500 | CC(=O)n1nc(N2CC3CC2CC3OCCN2CCCC2)c2c(-c3ccccc3)csc21 (stereo not drawn) [Compound 14, 1-[4-phenyl-3-[5-(2-pyrrolidin-1-ylethoxy)-2-azabicyclo[2.2.1]heptan-2-yl]thieno[2,3-c]pyrazol-1-yl]ethanone]
4 | < 500 | CC(=O)n1nc(N2CC3CC2CC3OCCN2CCCC2)c2c(-c3ccc(F)cc3)csc21 (stereo not drawn) [Compound 15, 1-[4-(4-fluorophenyl)-3-[5-(2-pyrrolidin-1-ylethoxy)-2-azabicyclo[2.2.1]heptan-2-yl]thieno[2,3-c]pyrazol-1-yl]ethanone]
5 | < 500 | CS(=O)(=O)n1nc(N2CC3CC2CC3OCCN2CCCC2)c2c(-c3ccc(F)cc3)csc21 (stereo not drawn) [Compound 16, 4-(4-fluorophenyl)-1-methylsulfonyl-3-[5-(2-pyrrolidin-1-ylethoxy)-2-azabicyclo[2.2.1]heptan-2-yl]thieno[2,3-c]pyrazole]
6 | < 500 | CC(=O)n1nc(N2CCCC(COCCN3CCCC3)C2)c2c(-c3ccccc3)csc21 (stereo not drawn) [Compound 18, 1-[4-phenyl-3-[3-(2-pyrrolidin-1-ylethoxymethyl)-1-piperidyl]thieno[2,3-c]pyrazol-1-yl]ethanone]
7 | < 500 | Cn1nc(N2CCC(COCCN3CCCC3)CC2)c2c(-c3ccccc3)csc21 [Compound 21, 1-methyl-4-phenyl-3-[4-(2-pyrrolidin-1-ylethoxymethyl)-1-piperidyl]thieno[2,3-c]pyrazole]
8 | 500 to 3000 | CN(C)C(=O)c1sc2c(c(N3CCC(COCCN4CCCC4)CC3)nn2C)c1-c1ccccc1 [Compound 22, N,N,1-trimethyl-4-phenyl-3-[4-(2-pyrrolidin-1-ylethoxymethyl)-1-piperidyl]thieno[2,3-c]pyrazole-5-carboxamide]
9 | < 500 | CC(C)NC(=O)c1sc2[nH]nc(N3CCC(COCCN4CCCC4)CC3)c2c1-c1ccccc1 [Compound 24, N-isopropyl-4-phenyl-3-[4-(2-pyrrolidin-1-ylethoxymethyl)-1-piperidyl]-1H-thieno[2,3-c]pyrazole-5-carboxamide]

The remaining lines, values behind:

Row | Compound | IC50 [nM]
10 | c1ccc(-c2csc3[nH]nc(N4CCC(COCCN5CCCC5)CC4)c23)cc1 [Compound 1, 4-phenyl-3-[4-(2-pyrrolidin-1-ylethoxymethyl)-1-piperidyl]-1H-thieno[2,3-c]pyrazole] | < 500
11 | Brc1sc2[nH]nc(N3CC4CC3CC4OCCN3CCCC3)c2c1-c1ccccc1 (stereo not drawn) [Compound 2, 5-bromo-4-phenyl-3-[5-(2-pyrrolidin-1-ylethoxy)-2-azabicyclo[2.2.1]heptan-2-yl]-1H-thieno[2,3-c]pyrazole] | < 500
12 | c1ccc(-c2csc3[nH]nc(N4CC5CC4CC5OCCN4CCCC4)c23)cc1 (stereo not drawn) [Compound 4, 4-phenyl-3-[5-(2-pyrrolidin-1-ylethoxy)-2-azabicyclo[2.2.1]heptan-2-yl]-1H-thieno[2,3-c]pyrazole] | < 500
13 | c1ccc(-c2csc3[nH]nc(N4C5CCC4CC(COCCN4CCCC4)C5)c23)cc1 (stereo not drawn) [Compound 6, 4-phenyl-3-[3-(2-pyrrolidin-1-ylethoxymethyl)-8-azabicyclo[3.2.1]octan-8-yl]-1H-thieno[2,3-c]pyrazole] | < 500
14 | c1ccc(-c2csc3[nH]nc(N4C5CCC4CC(OCCN4CCCC4)C5)c23)cc1 (stereo not drawn) [Compound 7, 4-phenyl-3-[3-(2-pyrrolidin-1-ylethoxy)-8-azabicyclo[3.2.1]octan-8-yl]-1H-thieno[2,3-c]pyrazole] | < 500
15 | c1ccc(-c2csc3[nH]nc(N4CCCC(COCCN5CCCC5)C4)c23)cc1 (stereo not drawn) [Compound 8, 4-phenyl-3-[3-(2-pyrrolidin-1-ylethoxymethyl)-1-piperidyl]-1H-thieno[2,3-c]pyrazole] | < 500
16 | c1ccc(-c2csc3[nH]nc(N4CCC(COCCN5CCCC5)C4)c23)cc1 (stereo not drawn) [Compound 9, 4-phenyl-3-[3-(2-pyrrolidin-1-ylethoxymethyl)pyrrolidin-1-yl]-1H-thieno[2,3-c]pyrazole] | < 500
17 | c1ccc(-c2csc3[nH]nc(N4C5CCC4CC(NC4CCC4)C5)c23)cc1 (stereo not drawn) [Compound 10, N-cyclobutyl-8-(4-phenyl-1H-thieno[2,3-c]pyrazol-3-yl)-8-azabicyclo[3.2.1]octan-3-amine] | < 500
18 | c1ccc(-c2csc3[nH]nc(N4C5CCC4CC(N4CCC4)C5)c23)cc1 (stereo not drawn) [Compound 11, 3-[3-(azetidin-1-yl)-8-azabicyclo[3.2.1]octan-8-yl]-4-phenyl-1H-thieno[2,3-c]pyrazole] | 500 to 3000
19 | CC(C)NC1CC2CCC(C1)N2c1n[nH]c2scc(-c3ccccc3)c12 (stereo not drawn) [Compound 12, N-isopropyl-8-(4-phenyl-1H-thieno[2,3-c]pyrazol-3-yl)-8-azabicyclo[3.2.1]octan-3-amine] | 500 to 3000
20 | CC(=O)n1nc(N2CCC(COCCN3CCCC3)CC2)c2c(-c3ccccc3)csc21 [Compound 13, 1-[4-phenyl-3-[4-(2-pyrrolidin-1-ylethoxymethyl)-1-piperidyl]thieno[2,3-c]pyrazol-1-yl]ethanone] | < 500
21 | CC(=O)n1nc(N2C3CCC2CC(OCCN2CCCC2)C3)c2c(-c3ccccc3)csc21 (stereo not drawn) [Compound 17, 1-[4-phenyl-3-[3-(2-pyrrolidin-1-ylethoxy)-8-azabicyclo[3.2.1]octan-8-yl]thieno[2,3-c]pyrazol-1-yl]ethanone] | < 500
22 | CC(=O)n1nc(N2CCC(COCCN3CCCC3)C2)c2c(-c3ccccc3)csc21 (stereo not drawn) [Compound 19, 1-[4-phenyl-3-[3-(2-pyrrolidin-1-ylethoxymethyl)pyrrolidin-1-yl]thieno[2,3-c]pyrazol-1-yl]ethanone] | < 500
23 | CS(=O)(=O)n1nc(N2CCC(COCCN3CCCC3)CC2)c2c(-c3ccccc3)csc21 [Compound 20, 1-methylsulfonyl-4-phenyl-3-[4-(2-pyrrolidin-1-ylethoxymethyl)-1-piperidyl]thieno[2,3-c]pyrazole] | < 500
24 | CN(C)C(=O)c1sc2[nH]nc(N3CCC(COCCN4CCCC4)CC3)c2c1-c1ccccc1 [Compound 23, N,N-dimethyl-4-phenyl-3-[4-(2-pyrrolidin-1-ylethoxymethyl)-1-piperidyl]-1H-thieno[2,3-c]pyrazole-5-carboxamide] | 500 to 3000
